Laboratory results taken from patent US11691962B2 (eXIthera Pharmaceuticals, Inc., priority 2018, dated 2023).
In brackets after ≈: the same amount, converted by molar mass.

How the values were obtained:
[1] = target: Thrombin (Homo sapiens (Human), UniProt P00734); assay: Dose response assay for protease inhibitors: thrombin; type: biochemical; conditions: selectivity, thrombin over Factor XIa
Procedure, shortened: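 Fluorogenic AMC-peptide cleavage in 20 mM Hepes pH 7.4, 150 mM NaCl, 0.02% Tween 20; 100 μM stock substrate dilution (Glp-Pro-Arg-AMC for thrombin/trypsin; Pro-Phe-Arg-AMC or Boc-Leu-Gly-Arg-AMC for Factor Xa). Enzyme diluted to 0.5 nM, added last to two-fold compound series; kinetic read at 30° C, 30 min (Factor Xa 60 min); IC50 fitted.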

[2] = Caco-2 cell permeability assay; type: in vitro ADME, human; conditions: human, 37° C.; for Papp A→B at 60 min, 10 μM: Caco-2, apical to basolateral; for Papp B→A at 40 min, 10 μM: Caco-2, basolateral to apical
Protocol: The following procedure was used to determine the ability of a test compound to cross Caco-2 cells (human intestinal epithelial cells derived from a colorectal adenocarcinoma). The cells were seeded at 1×10^5 cells/cm^2 in 96-well Multiscreen™ plates (Millipore). Permeability assays were performed with the cells at days 21-25 post-seeding. Cells are typically used for 15 consecutive passages in culture.
This assay can be performed in either the apical to basolateral (A-B) or basolateral to apical (B-A) direction. The test compound was prepared at 10 μM in HBSS-MES (pH 6.5) or HBSS-HEPES (pH 7.4) with a final DMSO concentration of 1%. The working solution was then centrifuged and the supernatant added to the donor side. The assay plate was incubated at 37° C. with gentle shaking for 60 min or 40 min for the A-B or B-A assay, respectively. Samples were aliquoted from the donor side at time zero and the end point, and from the receiver side at the end point.
Reference compounds, propranolol (highly permeable), labetalol (moderately permeable), ranitidine (poorly permeable), and colchicine (P-glycoprotein substrate) were included in each assay.
Samples are analyzed by HPLC-MS/MS using selected reaction monitoring. The HPLC system consists of a binary LC pump with autosampler, a C-18 column, and a gradient.
The apparent permeability coefficient (Papp) of the test compound (Equation 2) and its recovery (Equation 3) are calculated as follows:
[formula] wherein A is the surface area of the cell monolayer (0.11 cm^2), C is concentration of the test compound expressed as peak area, D denotes donor, and R is receiver. “0”, “mid,” and “end” denote time at zero, mid-point, and end of the incubation, respectively. Δt is the incubation time. V is the volume of the donor or receiver.
This is most likely due to non-specific binding or degradation.

[3] = Plasma protein binding by equilibrium dialysis; type: in vitro ADME; conditions: both sexes, pH 7.4, pooled human plasma, 4 hours at 37° C., read-out: PPB (%)
Protocol: The following procedure was used to determine the plasma protein binding of a test compound in pooled plasma from human (mixed gender) via equilibrium dialysis in a 96-well plate format. The dialysate compartment was loaded with phosphate-buffered saline (pH 7.4) and the sample side was loaded with plasma spiked with the test compound at a concentration of 10 μM. After loading, samples were covered and incubated for 4 hours at 37° C. After incubation, each compartment was sampled, diluted with acetonitrile/buffer and centrifuged. The supernatants were analyzed by HPLC-MS/MS. The analyte peak areas obtained from HPLC-MS/MS analysis of each sample were used to calculate protein binding according to the following equation (Equation 4):
[formula] where: AREAp=Peak area of analyte in protein matrix; AREAb=Peak area of analyte in buffer.
The amount measured in the plasma compartment included both free and bound drug, while that on the buffer side represented free drug only; the differences were used to calculate the percentage plasma protein bound. Three reference compounds were tested in each assay: acebutolol, quinidine and warfarin.

[4] = Aqueous solubility in PBS by HPLC-UV/VIS; type: physicochemical; conditions: phosphate buffered saline, aqueous buffer, kinetic from dmso stock; PBS pH 7.4, 2% DMSO, 24 h at room temperature
Protocol: The following procedure was used to determine the aqueous solubility of a test compound in phosphate buffered saline (PBS-NaCl 137 mM, KCl 2.7 mM, Na2HPO4 8.1 mM, KH2PO4 1.5 mM, pH 7.4) in 96-well plate format by HPLC-UV/VIS analysis. The test compound was prepared at 200 μM in PBS from a 10 mM DMSO stock solution. The final DMSO concentration was 2%. The PBS buffer samples were mixed thoroughly followed by incubation at room temperature for 24 h. At the end of the incubation, the PBS buffer samples were centrifuged and supernatants analyzed by HPLC. The aqueous solubility (μM) of the test compound in PBS was determined by comparing the peak area of the principal peak in the calibration standard (200 μM) with the peak area of the corresponding peak in each of the PBS samples. The range of the assay was approximately 0.5 μM to 200 μM. The reference compounds used in each assay were metoprolol, rifampicin, ketoconazole, phenytoin, haloperidol, simvastatin, diethylstilbestrol, and tamoxifen ranking from fully soluble (200 μM) to poorly soluble (<1 μM).

Structure (SMILES) | Ratio: Thrombin/FXIa [1] | Papp A→B at 60 min, 10 μM [2] | Papp B→A at 40 min, 10 μM [2] | fraction unbound at 4 h, 10 μM [3] | solubility at 24 h [4]
CC[C@@H](NC(=O)N1C(=O)[C@H](Cc2cc(C)nc(N)c2)[C@H]1C(=O)N(C)c1nccn1C)c1cc(F)ccc1F [Compound 1-137, (2S,3R)-3-((2-amino-6-methylpyridin-4-yl)methyl)-N2-(1-methyl-1H-imidazol-2-yl)-N1-((R)-1-(2,5-difluorophenyl)propyl)-N2-methyl-4-oxoazetidine-1,2-dicarboxamide] | H (“H” indicates 101-1000) | < 10 ×10⁻⁶ cm/s | 11 to 30 ×10⁻⁶ cm/s | 0.05 to 0.09 | > 100 µM
CC[C@@H](NC(=O)N1C(=O)[C@H](Cc2cc(C)nc(N)c2)[C@H]1C(=O)N(C)c1ccnn1C)c1ccc(C)c(F)c1 [Compound 1-155, (2S,3R)-3-((2-amino-6-methylpyridin-4-yl)methyl)-N2-(1-methyl-1H-pyrazol-5-yl)-N1-((R)-1-(3-fluoro-4-methylphenyl)propyl)-N2-methyl-4-oxoazetidine-1,2-dicarboxamide] | I (“I” indicates > 500) | < 10 ×10⁻⁶ cm/s | 11 to 30 ×10⁻⁶ cm/s | 0.1 to 0.5 | > 100 µM
CC[C@@H](NC(=O)N1C(=O)[C@H](Cc2ccnc(N)c2)[C@H]1C(=O)N(C)c1ccn(C)n1)C1CCCCC1 [Compound 1-47, (2S,3R)-3-((2-aminopyridin-4-yl)methyl)-N2-(1-methyl-1H-pyrazol-3-yl)-N1-((R)-1-cyclohexylpropyl)-N2-methyl-4-oxoazetidine-1,2-dicarboxamide] | H (“H” indicates 101-1000) | < 10 ×10⁻⁶ cm/s | 31 to 50 ×10⁻⁶ cm/s | 0.05 to 0.09 | > 100 µM
CC[C@@H](NC(=O)N1C(=O)[C@H](Cc2cc(C)nc(N)c2)[C@H]1C(=O)N(C)c1cnn(C)c1)c1cccc(Cl)c1 [Compound 1-15, (2S,3R)-3-((2-amino-6-methylpyridin-4-yl)methyl)-N2-(1-methyl-1H-pyrazol-4-yl)-N1-((R)-1-(3-chlorophenyl)propyl)-N2-methyl-4-oxoazetidine-1,2-dicarboxamide] | G (“G” indicates 1-100) | < 10 ×10⁻⁶ cm/s | 11 to 30 ×10⁻⁶ cm/s | 0.1 to 0.5 | > 100 µM
CC[C@@H](NC(=O)N1C(=O)[C@H](Cc2cc(C)nc(NC)c2)[C@H]1C(=O)N(C)c1nccn1C)c1ccccc1 [Compound 1-45, (2S,3R)-3-((2-methylamino-6-methylpyridin-4-yl)methyl)-N2-(1-methyl-1H-imidazol-2-yl)-N1-((R)-1-phenylpropyl)-N2-methyl-4-oxoazetidine-1,2-dicarboxamide] | H (“H” indicates 101-1000) | 11 to 30 ×10⁻⁶ cm/s | 31 to 50 ×10⁻⁶ cm/s | 0.1 to 0.5 | > 100 µM
CC[C@@H](NC(=O)N1C(=O)[C@H](Cc2cc(C)nc(N)c2)[C@H]1C(=O)N(C)c1ccnn1C)c1ccc(C)c(C)c1 [Compound 1-152, (2S,3R)-3-((2-amino-6-methylpyridin-4-yl)methyl)-N2-(1-methyl-1H-pyrazol-5-yl)-N1-((R)-1-(3,4-dimethylphenyl)propyl)-N2-methyl-4-oxoazetidine-1,2-dicarboxamide] | I (“I” indicates > 500) | < 10 ×10⁻⁶ cm/s | 11 to 30 ×10⁻⁶ cm/s | 0.1 to 0.5 | > 100 µM
C[C@@H](NC(=O)N1C(=O)[C@H](Cc2ccnc(N)c2)[C@H]1C(=O)N(C)c1ccn(C)n1)C1CCCCC1 [Compound 1-50, (2S,3R)-3-((2-aminopyridin-4-yl)methyl)-N2-(1-methyl-1H-pyrazol-3-yl)-N1-((R)-1-cyclohexylethyl)-N2-methyl-4-oxoazetidine-1,2-dicarboxamide] | H (“H” indicates 101-1000) | < 10 ×10⁻⁶ cm/s | 31 to 50 ×10⁻⁶ cm/s | 0.1 to 0.5 | > 100 µM
CC[C@@H](NC(=O)N1C(=O)[C@H](Cc2ccnc(N)c2)[C@H]1C(=O)N(C)c1ccnn1C)C1CCCCC1 [Compound 1-63, (2S,3R)-3-((2-aminopyridin-4-yl)methyl)-N2-(1-methyl-1H-pyrazol-5-yl)-N1-((R)-1-cyclohexylpropyl)-N2-methyl-4-oxoazetidine-1,2-dicarboxamide] | I (“I” indicates > 500) | 11 to 30 ×10⁻⁶ cm/s | 31 to 50 ×10⁻⁶ cm/s | 0.1 to 0.5 | > 100 µM
CC[C@@H](NC(=O)N1C(=O)[C@H](Cc2cc(C)nc(N)c2)[C@H]1C(=O)N(C)c1nccn1C)c1ccccc1 [Compound 1-51, (2S,3R)-3-((2-amino-6-methylpyridin-4-yl)methyl)-N2-(1-methyl-1H-imidazol-2-yl)-N1-((R)-1-phenylpropyl)-N2-methyl-4-oxoazetidine-1,2-dicarboxamide] | H (“H” indicates 101-1000) | < 10 ×10⁻⁶ cm/s | 31 to 50 ×10⁻⁶ cm/s | 0.1 to 0.5 | > 100 µM
CC(C)[C@@H](NC(=O)N1C(=O)[C@H](Cc2ccnc(N)c2)[C@H]1C(=O)N(C)c1ccn(C)n1)C1CCCCC1 [Compound 1-57, (2S,3R)-3-((2-aminopyridin-4-yl)methyl)-N2-(1-methyl-1H-pyrazol-3-yl)-N1-((R)-1-cyclohexyl-2-methylpropyl)-N2-methyl-4-oxoazetidine-1,2-dicarboxamide] | H (“H” indicates 101-1000) | 11 to 30 ×10⁻⁶ cm/s | 11 to 30 ×10⁻⁶ cm/s | < 0.05 | 10 to 100 µM (≈ 4.96 to 49.6 µg/mL)
CN(C(=O)[C@@H]1[C@@H](Cc2ccnc(N)c2)C(=O)N1C(=O)N[C@@H](C1CCCCC1)C1CC1)c1ccn(C)n1 [Compound 1-58, (2S,3R)-3-((2-aminopyridin-4-yl)methyl)-N2-(1-methyl-1H-pyrazol-3-yl)-N1-((R)-cyclohexyl-cyclopropylmethyl)-N2-methyl-4-oxoazetidine-1,2-dicarboxamide] | H (“H” indicates 101-1000) | 11 to 30 ×10⁻⁶ cm/s | 11 to 30 ×10⁻⁶ cm/s | 0.05 to 0.09 | > 100 µM
CC[C@@H](NC(=O)N1C(=O)[C@H](Cc2cc(C)nc(N)c2)[C@H]1C(=O)N(C)c1ccnn1C)C1CCCCC1 [Compound 1-67, (2S,3R)-3-((2-amino-6-methylpyridin-4-yl)methyl)-N2-(1-methyl-1H-pyrazol-5-yl)-N1-((R)-1-cyclohexylpropyl)-N2-methyl-4-oxoazetidine-1,2-dicarboxamide] | I (“I” indicates > 500) | 11 to 30 ×10⁻⁶ cm/s | 31 to 50 ×10⁻⁶ cm/s | 0.1 to 0.5 | > 100 µM
